Data taken from PMC7253423, “Quassinoid analogs with enhanced efficacy for treatment of hematologic malignancies target the PI3Kγ isoform” (Communications Biology, 2020).
Like-named read-outs stand apart in the source and are kept apart here.

Tests used:
Raji cells = assay: Cell viability assay (CellTiter-Glo luminescence); assay type: cell-based, human; settings: Homo sapiens; for viability at 0.00244141 µM: read-out: relative cell viability (Fig 6f), replicates, Raji, Con. 0.00244141 μM, fraction of 0 μM control; for viability at 0.0390625 µM: read-out: relative cell viability (Fig 6f), replicates, Raji, Con. 0.0390625 μM, fraction of 0 μM control; for viability at 0.15625 µM: read-out: relative cell viability (Fig 6f), replicates, Raji, Con. 0.15625 μM, fraction of 0 μM control; for viability at 0.625 µM: read-out: relative cell viability (Fig 6f), replicates, Raji, Con. 0.625 μM, fraction of 0 μM control; for viability at 10 µM: read-out: relative cell viability (Fig 6f), replicates, Raji, Con. 10 μM, fraction of 0 μM control; for viability at […]: read-out: relative cell viability (Fig 6f), replicates, Raji, Con. […], fraction of 0 μM control
Procedure: (§1) 5000 cells as indicated were cultured in 96-well plate with 100 μl of media. […] After treatment, the cells were incubated with 100 μl buffer for 10 min at room temperature following the instructions of CellTiter-Glo kit (Promega, Madison, WI). Luminescence was detected using a multi-mode reader Cytation 5 (BioTek, Winooski, VT). […] Two independent experiments done in duplicates were performed.

SU-DHL-4 cells = assay: Cell viability assay (CellTiter-Glo luminescence); assay type: cell-based, human; settings: Homo sapiens, SU-DHL-4, 144 h; for viability at 0.00244141 µM: read-out: relative cell viability (Fig 6d), replicates, SU-DHL-4, Con. 0.00244141 μM, fraction of 0 μM control; for viability at 0.0390625 µM: read-out: relative cell viability (Fig 6d), replicates, SU-DHL-4, Con. 0.0390625 μM, fraction of 0 μM control; for viability at 0.15625 µM: read-out: relative cell viability (Fig 6d), replicates, SU-DHL-4, Con. 0.15625 μM, fraction of 0 μM control; for viability at 0.625 µM: read-out: relative cell viability (Fig 6d), replicates, SU-DHL-4, Con. 0.625 μM, fraction of 0 μM control; for viability at 10 µM: read-out: relative cell viability (Fig 6d), replicates, SU-DHL-4, Con. 10 μM, fraction of 0 μM control
Procedure: as §1

[1] = Cytotoxicity, cell viability assay in normal cells; assay type: cell-based; settings: human, fraction of 0 μM control; for viability at 0.000244141 μM: Con. 0.000244141 μM; for viability at 0.00390625 μM: Con. 0.00390625 μM; for viability at 0.015625 μM: Con. 0.015625 μM; for viability at 0.0625 μM: Con. 0.0625 μM; for viability at 1 μM: Con. 1 μM; for viability at […]: Con. […]
Excerpt: (§2) Human peripheral blood mononuclear cells (PBMCs), normal T-cells and B-cells were provided by the University of Pennsylvania Human Immunology Core (HIC), and Patient-derived xenografts (PDXs) were obtained from Fox Chase Cancer Center (FCCC). These samples were from different unidentified and healthy donors with written, informed consent. All the procedures were approved by the Institutional Review Board (IRB) and conducted according to the declarations of Helsinki protocols.
as §1

[2] = Cytotoxicity, cell viability assay in normal cells; assay type: cell-based, human; settings: human, PBMC, fraction of 0 μM control, read-out: relative cell viability (Fig 6a), replicates; for viability at 0.000244141 μM: Con. 0.000244141 μM; for viability at 0.00390625 μM: Con. 0.00390625 μM; for viability at 0.015625 μM: Con. 0.015625 μM; for viability at 0.0625 μM: Con. 0.0625 μM; for viability at 1 μM: Con. 1 μM
Excerpt: as §2, §1

MOLM14 cells = assay: Cell viability assay (CellTiter-Glo luminescence); assay type: cell-based; settings: Homo sapiens; for viability at 0.00244141 µM: MOLM-14, read-out: relative cell viability (Fig 6e), replicates, MOLM14, Con. 0.00244141 μM, fraction of 0 μM control; for viability at 0.0390625 µM: MOLM-14, read-out: relative cell viability (Fig 6e), replicates, MOLM14, Con. 0.0390625 μM, fraction of 0 μM control; for viability at 0.15625 µM: MOLM-14, read-out: relative cell viability (Fig 6e), replicates, MOLM14, Con. 0.15625 μM, fraction of 0 μM control; for viability at 0.625 µM: MOLM-14, read-out: relative cell viability (Fig 6e), replicates, MOLM14, Con. 0.625 μM, fraction of 0 μM control; for viability at 10 µM: MOLM-14, read-out: relative cell viability (Fig 6e), replicates, MOLM14, Con. 10 μM, fraction of 0 μM control; for viability at […]: MOLM-14, read-out: relative cell viability (Fig 6e), replicates, MOLM14, Con. […], fraction of 0 μM control
Procedure: as §1

[3] = normal B-cells from healthy donors, B-cells, read-out: relative cell viability (Fig 6c), replicates
[4] = normal T-cells from healthy donors, T-cells, read-out: relative cell viability (Fig 6b), replicates

Row | SMILES | viability at 0.00244141 µM (Raji cells) [%] | viability at 0.0390625 µM (Raji cells) [%] | viability at 0.15625 µM (Raji cells) [%] | viability at 0.625 µM (Raji cells) [%] | viability at 10 µM (Raji cells) [%] | viability at 0.15625 µM (SU-DHL-4 cells) [%] | viability at 0.625 µM (SU-DHL-4 cells) [%] | viability at 10 µM (SU-DHL-4 cells) [%] | viability at 0.000244141 μM [1, 3] [%] | viability at 0.015625 μM [1, 3] [%] | viability at 1 μM [1, 3] [%] | viability at 0.000244141 μM [1, 4] [%] | viability at 0.00390625 μM [1, 4] [%] | viability at 0.015625 μM [1, 4] [%] | viability at 1 μM [1, 4] [%] | viability at 0.00390625 μM [2] [%] | viability at 0.015625 μM [2] [%] | viability at 0.0625 μM [2] [%] | viability at 1 μM [2] [%] | viability at 0.625 µM (MOLM14 cells) [%] | also measured
1 | COc1c(OCCCN2CCOCC2)ccc2c1N=C(NC(=O)c1cnc(N)nc1)N1CCN=C21 [Copanlisib] | 94.7 | 91.7 | 102 | 67.9 | 7.75 | 42.6 | 12.3 | 5.12 | 90.1 | 91.4 | 52.6 | 95.3 | 102 | 94.4 | 79.9 | 106 | 92.8 | 73 | 61.4 | 18.1 | viability at 0.00244141 µM (SU-DHL-4 cells): 122%; viability at 0.0390625 µM (SU-DHL-4 cells): 69%; viability at 0.00390625 μM [1, 3]: 95.7%; viability at 0.0625 μM [1, 3]: 79.9%; viability at 0.0625 μM [1, 4]: 107%; viability at 0.000244141 μM [2]: 104%; viability at 0.00244141 µM (MOLM14 cells): 89.1%; viability at 0.0390625 µM (MOLM14 cells): 59%; viability at 0.15625 µM (MOLM14 cells): 58.4%; viability at 10 µM (MOLM14 cells): 4.25%
2 | C[C@H](Nc1ncnc2nc[nH]c12)c1cc2cccc(Cl)c2c(=O)n1-c1ccccc1 [Duvelisib] | 94.9 | 112 | 94.1 | 99.1 | 64.1 | 85.8 | 75.1 | 27.4 | 94.3 | 80.4 | 72.7 | 108 | 100 | 99.3 | 93.2 | 94.6 | 101 | 92.6 | 80.3 | 125 | viability at […] (Raji cells): 104%; viability at 0.00244141 µM (SU-DHL-4 cells): 103%; viability at 0.0390625 µM (SU-DHL-4 cells): 99.8%; viability at 0.00390625 μM [1, 3]: 103%; viability at 0.0625 μM [1, 3]: 104%; viability at 0.0625 μM [1, 4]: 102%; viability at […] [1, 4]: 103%; viability at 0.000244141 μM [2]: 103%; viability at 0.0390625 µM (MOLM14 cells): 122%; viability at 0.15625 µM (MOLM14 cells): 109%; viability at 10 µM (MOLM14 cells): 24.1%; viability at […] (MOLM14 cells): 106%
3 | C[C@H](NC(=O)c1c(N)nn2cccnc12)c1cc2cccc(C#Cc3cnn(C)c3)c2c(=O)n1-c1ccccc1 [IPI-549] | 95.4 | 108 | 113 | 122 | 55 | 115 | 94.2 | 30.8 | 107 | 118 | 93.7 | 108 | 107 | 109 | 115 | 98.8 | 104 | 102 | 99.1 | 93.4 | viability at […] (Raji cells): 98.4%; viability at 0.00244141 µM (SU-DHL-4 cells): 94.9%; viability at 0.0625 μM [1, 3]: 105%; viability at […] [1, 3]: 122%; viability at 0.0625 μM [1, 4]: 83.1%; viability at […] [1, 4]: 109%; viability at 0.00244141 µM (MOLM14 cells): 121%; viability at 10 µM (MOLM14 cells): 23.9%; viability at […] (MOLM14 cells): 119%
4 | CC[C@H](Nc1ncnc2[nH]cnc12)c1nc2cccc(F)c2c(=O)n1-c1ccccc1 [Idelalisib] | 111 | – | 114 | – | – | 99.8 | 87.1 | 33.1 | 101 | 103 | 81.2 | 105 | 102 | 98.9 | 98.7 | 99.7 | 111 | 83.8 | 89.1 | 113 | viability at 0.0390625 µM (SU-DHL-4 cells): 96.2%; viability at 0.00390625 μM [1, 3]: 103%; viability at […] (MOLM14 cells): 120%
